Measurements as given in patent US20240174690A1, “ANNULATED 2-AMINO-3-CYANO THIOPHENES AND DERIVATIVES FOR THE TREATMENT OF CANCER” (BOEHRINGER INGELHEIM INTERNATIONAL GMBH, priority 2021, published 2024).

Columns and labels:
SK-CO-1 cells = experiment: SK-CO-1 CTG proliferation assay (120 h) (CRC, G12V); assay type: cell-based; settings: Homo sapiens; SK-CO-1 cells (CRC, G12V), CTG 120 h
Protocol: SK-CO-1 CTG Proliferation Assay (120 h) (CRC, G12V)
SK-CO-1 cells (ATCC HTB-39) are dispensed into 384-well plates, flat and clear bottom (Greiner, PNr. 781091) at a density of 500 cells per well in 60 μL EMEM (Sigma M5650)+10% Fetal Calf Serum (HyClone, PNr.: SH30084.03) and incubated at 37° C. in a CO2 incubator overnight. The next day, compounds (10 mM stock in DMSO) are added with the ECHO acoustic liquid handler system (Beckman Coulter), including DMSO controls. Plates are incubated for 120 h, and cell viability is measured using CellTiter-Glo luminescent cell viability reagent (Promega product code G7570). Viability (stated as percent of control) is defined as relative luminescence units RLU of each well divided by the RLU of cells in DMSO controls. IC50 values are determined from viability measurements by non-linear regression using a four-parameter model.

[1] = Caco-2 assay (permeability PappAB, PappBA, efflux ratio); assay type: in vitro ADME; settings: human, Caco-2, 10 μM test compound, pH 7.4; for Papp A→B at 90 min, 10 μM: apical to basolateral; for efflux ratio at 90 min, 10 μM: efflux ratio PappBA/PappAB, read-out: Caco ER
Text: The assay provides information on the potential of a compound to pass the cell membrane, on the extent of oral absorption as well as on whether the compound is actively transported by uptake and/or efflux transporters. Permeability measurements across polarized, confluent Caco-2 cell monolayers grown on permeable filter supports (Corning, catalog #3391) are used. […] The receiver and donor compartments contain 0.25% bovine serum albumine (BSA) in assay buffer. Passive diffusion and/or active transport of compounds across the monolayer is measured in both apical to basolateral (a-b) and basolateral to apical (b-a) direction. a-b permeability (PappAB) represents drug absorption from the intestine into the blood and b-a permeability (PappBA) drug secretion from the blood back into the intestine via both passive permeability as well as active transport mechanisms mediated by efflux and uptake transporters that are expressed on the Caco-2 cells. After a pre-incubation of 25-30 min at 37° C., at predefined time points (0, 30, 60 and 90 min), samples were taken from the receiver and donor compartment, respectively. Concentrations of test compounds in samples were measured by HPLC/MS/MS, samples from the donor compartment were diluted 1:50 (v:v) with assay buffer, samples from receiver compartment were measured without dilution.
Apparent permeabilities in a-b (PappAB) and b-a (PappBA) directions are calculated according to the formula:
[formula] • Vrec [mL]: buffer volume in receiver compartment • Cdon [μmol/mL]: concentration of test compound in donor compartment at t=0 • ΔCrec: difference between concentrations of test compound in receiver compartment at start and end of incubation time • Δt: Incubation time • Vrec·ΔCrec/Δt [μmol/min]: Amount of compound transferred to receiver compartment per time • A [cm^2]: filter surface
Caco-2 efflux ratios (ER) are calculated as the ratio of PappBA/PappAB.

[2] = test system: KRAS G12V-dependent Ba/F3 cells; experiment: Ba/F3 proliferation assay, KRAS G12V; assay type: cell-based; settings: Mus musculus, BaF3, 72 h, AlamarBlue;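 also: proliferation IC50 in KRAS G12V-dependent Ba/F3 cells read by AlamarBlue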
Protocol: Plasmids containing KRASG12 mutants (i.e. […], G12C, G12V) are obtained from GeneScript. To generate KRASG12-dependent Ba/F3 models, Ba/F3 cells are transduced with retroviruses containing vectors that harbor KRASG12 isoforms. Platinum-E cells (Cell Biolabs) are used for retrovirus packaging. Retrovirus is added to Ba/F3 cells. To ensure infection, 4 μg/mL polybrene is added and cells are spinfected. […] Cells with an infection efficiency of 10% to 20% are further cultivated and puromycin selection with 1 μg/mL is initiated. As a control, parental Ba/F3 cells are used to show selection status. Selection is considered successful when parental Ba/F3 cells cultures died. To evaluate the transforming potential of KRASG12 mutations, the growth medium is no longer supplemented with IL-3. Ba/F3 cells harboring the empty vector are used as a control. Approximately ten days before conducting the experiments, puromycin is left out.
Compounds are added using an Access Labcyte Workstation with a Labcyte Echo 550 or 555 accoustic dispenser. All treatments are performed in technical duplicates. […] AlamarBlue™ (ThermoFisher), a viability stain, is added and fluorescence measured in the PerkinElmer Envision HTS Multilabel Reader. The raw data are imported into and analyzed with the Boehringer Ingelheim proprietary software MegaLab (curve fitting based on the program PRISM, GraphPad Inc.).

[3] = Plasma protein binding assay (PPB), equilibrium dialysis, 10% FCS in PBS; assay type: in vitro ADME; settings: bovine, read-out: PPB 10% FCS (% fu)
Protocol: Binding of test compounds to plasma was determined using equilibrium dialysis (ED) and quantitative mass spectrometry interfaced with liquid chromatography (LC-MS). In brief, ED was performed with dialysis devices consisting of two chambers separated by a semipermeable membrane with a molecular weight cut-off of 5-10 kg/mol. One chamber was filled with 10% FCS in PBS containing 1-10 μmol/L test compound and the other chamber was filled with phosphate-buffer saline (PBS) with or without dextran. The dialysis chamber was incubated for 3-5 hours at 37° C. After incubation, protein was precipitated from aliquots of each chamber and the concentration of test compound in the supernatant of the plasma-containing compartment (Cserum) and of the buffer-containing compartment (Cbuffer) was determined by LC-MS. The fraction of unbound test compound (not bound to plasma) (fu) was calculated according to the following equation: […]

CYP3A4 = CYP3A4 (Homo sapiens (Human), UniProt P08684); experiment: Mechanism based inhibition of CYP3A4 assay (MBI 3A4); assay type: in vitro ADME; settings: hydroxy-midazolam formation after 30 min vs 0 min preincubation, 25 uM, human liver microsomes
Chain of CYP3A4 (P08684 whole entry): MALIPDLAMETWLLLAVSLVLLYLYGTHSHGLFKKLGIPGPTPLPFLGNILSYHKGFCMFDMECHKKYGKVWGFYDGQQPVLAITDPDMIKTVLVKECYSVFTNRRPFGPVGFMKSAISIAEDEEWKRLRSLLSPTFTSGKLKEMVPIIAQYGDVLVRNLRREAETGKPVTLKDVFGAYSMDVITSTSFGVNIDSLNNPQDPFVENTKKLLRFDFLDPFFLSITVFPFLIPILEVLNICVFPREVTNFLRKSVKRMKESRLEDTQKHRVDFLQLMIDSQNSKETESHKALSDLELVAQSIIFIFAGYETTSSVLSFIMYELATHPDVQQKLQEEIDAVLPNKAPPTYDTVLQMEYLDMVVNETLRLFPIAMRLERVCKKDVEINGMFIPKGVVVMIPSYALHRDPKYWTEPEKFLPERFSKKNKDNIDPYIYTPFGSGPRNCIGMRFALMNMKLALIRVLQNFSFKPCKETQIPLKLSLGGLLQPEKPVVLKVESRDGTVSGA
Protocol: After preincubation, the incubate is diluted 1:10 and the substrate midazolam is added for the main incubation (15 min). The main incubation is quenched with acetonitrile and the formation of hydroxy-midazolam is quantified via LC/MS-MS. The formation of hydroxy-midazolam from the 30 min preincubation relative to the formation from the 0 min preincubation is used as a readout. Values of less than 100% mean that the substrate midazolam is metabolized to a lower extent upon 30 min preincubation compared to 0 min preincubation. In general low effects upon 30 min preincubation are desired (corresponding to values close to 100%/not different to the values determined with water control).

IC50 (SK-CO-1 cells) [nM]	Papp A→B at 90 min, 10 μM [1] [×10⁻⁶ cm/s]	efflux ratio at 90 min, 10 μM [1]	IC50 [2] [nM]	fraction unbound [3]	MBI 3A4 (CYP3A4) [%]	Structure (SMILES)
987	1.1	29	253	0.51	34	C[C@H](Oc1cc(N2CCNC3(CC3)C2)nc(-c2onc3c2CCC[C@@]32CCCc3sc(N)c(C#N)c32)n1)[C@@H]1CCCN1C [I-5]
2080	2.9	15	316	0.94	79	C[C@H](Oc1cc(N2C[C@H](C)N[C@@H](C)C2)nc(-c2onc3c2CCC[C@@]32CCCc3sc(N)c(C#N)c32)n1)[C@@H]1CCCN1C [I-6]
532	–	–	258	0.77	25	C[C@H](Oc1cc(N2C[C@H](C)NC3(CC3)C2)nc(-c2onc3c2CCC[C@@]32CCCc3sc(N)c(C#N)c32)n1)[C@@H]1CCCN1C [I-8]
530	< 4.1	–	416	0.33	78	C[C@H](Oc1cc(N2CC[C@H](N(C)C)C2)nc(-c2onc3c2CCC[C@@]32CCCc3sc(N)c(C#N)c32)n1)[C@@H]1CCCN1C [I-11]
872	4.7	10.8	304	0.36	75	C[C@H](Oc1cc(N2CC[C@H](N(C)C)C2)nc(-c2noc3c2CCC[C@@]32CCCc3sc(N)c(C#N)c32)n1)[C@@H]1CCCN1C [II-49]
802	0.3	111	393	0.38	54	C[C@H](Oc1cc(N2CCNC[C@]23CCOC3)nc(-c2noc3c2CCC[C@@]32CCCc3sc(N)c(C#N)c32)n1)[C@@H]1CCCN1C [II-50]
566	1.5	22	285	0.29	80	C[C@H](Oc1cc(-n2cc3c(n2)CCNC3)nc(-c2noc3c2CCC[C@@]32CCCc3sc(N)c(C#N)c32)n1)[C@@H]1CCCN1C [II-53]
464	< 1.1	–	157	0.3	31	C[C@H](Oc1cc(N2CCNC3(CC3)C2)nc(-c2noc3c2CCC[C@@]32CCCc3sc(N)c(C#N)c32)n1)[C@@H]1CCCN1C [II-54]
754	3.5	5.4	302	0.26	88	C[C@H](Oc1cc(N2CCN(C)CC2)nc(-c2noc3c2CCC[C@@]32CCCc3sc(N)c(C#N)c32)n1)[C@@H]1CCCN1C [II-55]
554	7.5	2.3	166	0.48	73	C[C@H](Oc1cc(N2C[C@H](C)N[C@@H](C)C2)nc(-c2noc3c2CCC[C@@]32CCCc3sc(N)c(C#N)c32)n1)[C@@H]1CCCN1C [II-56]
87	0.7	43.3	45	0.5	61	C[C@H](Oc1cc(N2CCC[C@H](O)C2)nc(-c2noc3c2CCC[C@@]32CCCc3sc(N)c(C#N)c32)n1)[C@@H]1CCCN1C [II-57]
90	13	1.2	9	0.31	68	CO[C@@H]1C[C@@H]([C@H](C)Oc2cc(-n3ccnc3)nc(-c3noc4c3CCC[C@@]43CCCc4sc(N)c(C#N)c43)n2)N(C)C1 [II-58]
67	0.9	37.2	31	0.64	80	C[C@H](Oc1cc(N2CCC[C@@H](O)C2)nc(-c2noc3c2CCC[C@@]32CCCc3sc(N)c(C#N)c32)n1)[C@@H]1CCCN1C [II-59]
280	19	0.3	17	0.18	53	CO[C@@H]1C[C@@H]([C@H](C)Oc2cc(-c3cnn(C)n3)nc(-c3noc4c3CCC[C@@]43CCCc4sc(N)c(C#N)c43)n2)N(C)C1 [II-62]
134	–	–	49	0.06	74	C[C@H](Oc1cc(N2Cc3cnn(C)c3C2)nc(-c2noc3c2CCC[C@@]32CCCc3sc(N)c(C#N)c32)n1)[C@@H]1CCCN1C [II-63]
76	< 2.9	–	29	0.41	71	C[C@H](Oc1cc(N2CC[C@@H](O)C2)nc(-c2noc3c2CCC[C@@]32CCCc3sc(N)c(C#N)c32)n1)[C@@H]1CCCN1C [II-66]
60	–	–	15	0.23	72	C[C@H](Oc1cc(C2=CCOCC2)nc(-c2noc3c2CCC[C@@]32CCCc3sc(N)c(C#N)c32)n1)[C@@H]1CCCN1C [II-67]
43	–	–	17	0.22	52	C[C@H](Oc1cc(N2CCCC2=O)nc(-c2noc3c2CCC[C@@]32CCCc3sc(N)c(C#N)c32)n1)[C@@H]1CCCN1C [II-73]
52	–	–	11	0.48	81	C[C@H](Oc1cc(-c2cnn(C)c2)nc(-c2noc3c2CCC[C@@]32CCCc3sc(N)c(C#N)c32)n1)[C@@H]1CCCN1C [II-74]
84	–	–	14	0.49	48	C[C@H](Oc1cc(-c2ccncc2)nc(-c2noc3c2CCC[C@@]32CCCc3sc(N)c(C#N)c32)n1)[C@@H]1CCCN1C [II-78]
